The values below come from patent EP0431323A1, “Antitumor antibiotic BU-3983T” (priority 1989, dated 1991).

Data set [1] deals with DNA synthesis in B16-F10 melanoma cells. In words: Inhibition of macromolecule synthesis: DNA (3H-thymidine incorporation). It is filed as cell-based, murine. The note with it: Mus musculus, 4.5 hours + 30 minutes label, read-out: IC₅₀ DNA.
Experimental: (§2) B16-F10 cells (10⁵ cells/ml) were incubated with test materials at 37°C for 4.5 hours (for DNA synthesis) or 4 hours (for RNA and protein syntheses). Labelled precursor, ³H-thymidine, ¹⁴C-uridine or ³H-leucine was added to the culture and further incubated for 30 minutes (for DNA) or 60 minutes (for RNA and protein). After washing with chilled 5% trichloroacetic acid solution, the radioactivity incorporated into the acid-insoluble fraction of the tumor cells was determined by a liquid scintillation counter. Actinomycin D was used as a reference compound.
Data set [2] has as its system RNA synthesis in B16-F10 melanoma cells. In words: Inhibition of macromolecule synthesis: RNA (14C-uridine incorporation). It counts as cell-based, murine. The note with it: Mus musculus, 4 hours + 60 minutes label, read-out: IC₅₀ RNA.
Experimental: as §2
Data set [3] concerns Protein synthesis in B16-F10 melanoma cells. As to the kind of experiment: Inhibition of macromolecule synthesis: protein (3H-leucine incorporation). The note with it: Mus musculus, 4 hours + 60 minutes label, read-out: IC₅₀ Protein. It is filed as cell-based, murine.
Experimental: as §2
Another data set concerns platelet aggregation. As to conditions: Fujioka, et al, J. Org. Chem. 53, 2820 (1988); cited from earlier work.
For data set [4] the following is noted: Fujioka, et al, J. Org. Chem. 53, 2820 (1988); cited from earlier work.
The test system of a further data set is B16 melanoma. In words: In vivo antitumor activity in tumor-bearing mice, B16 melanoma (ip). As to conditions: B16 melanoma ip, BDF₁ mice, Q4D x 3; for T/C: significant if T/C ≧ 125%. The method, then:
(§1) In vivo antitumor activity of BU-3983T was examined using tumor-bearing mice. Male BDF₁ mice were intraperitoneally inoculated with 0.5 ml of 10% melanotic melanoma B16 brei, and female CDF₁ mice were intraperitoneally inoculated with 0.4 ml of diluted ascitic fluid containing 10⁶ lymphocytic leukemia P388 cells or 10⁵ lymphoid leukemia L1210 cells. Mitomycin C was used as a reference compound. Test compounds were intraperitoneally administered to the mice by the following treatment schedules: once a day on day 1 only (Q1D x 1), on days 1, 5 and 9 (Q4D x 3) or on days 1 to 9 (Q1D x 9). […]

The test system of the next data set is P388 leukemia. As to the kind of experiment: In vivo antitumor activity in tumor-bearing mice, P388 leukemia (ip). As to conditions: P388 leukemia ip, CDF₁ mice, Q1D x 1; for T/C: significant if T/C ≧ 125%. The method, then:
as §1

In a further data set the test system is L1210 leukemia. In words: In vivo antitumor activity in tumor-bearing mice, L1210 leukemia (ip). The note with it: L1210 leukemia ip, CDF₁ mice, Q1D x 1; for T/C: significant if T/C ≧ 125%. The method, then: as §1
Data set [5] concerns Gram-positive microorganisms. The note with it: Maehr, et al, J. Antibiotics, 39, 17 (1986); cited from earlier work.
Another data set concerns Gram-positive organism. As to conditions: Sheehan et al, J. Am. Chem. Soc., 90, 462 (1968); cited from earlier work.
The next data set concerns Gram-negative bacteria. As to conditions: Sheehan et al, J. Am. Chem. Soc., 90, 462 (1968); cited from earlier work.

Numbered stars: 1 amine (or outer) side, 2 acyl side, 3 side chain; on linkers, the order of the positions; unused ones are H or OH. Bridge positions count the residues as written; N and C are the ends. Square brackets hold non-standard residues; d marks the D form. Peptide text beside a SMILES is read from it. I, II: the chains in the order shown. * marks the point of attachment. Actinocin(9to1) = Cc1c2oc3c(C)ccc(C(=O)[*:1])c3nc-2c(C(=O)[*:2])c(N)c1=O; Leu(3R-OH,Nα-propionyl) = CCC(=O)N[C@H](C(=O)*)[C@H](O)C(C)C; X1 = CC(C)[C@@H](O[*:3])[C@H](N[*:1])C(=O)[*:2]; NMeT = CN[C@H](C(=O)O)[C@@H](C)O; dPhLac = O=C(O)[C@H](O)Cc1ccccc1; NMeV = CN[C@H](C(=O)O)C(C)C; NMeA = CN[C@@H](C)C(=O)O; NMeDha = C=C(NC)C(=O)O; Sar = CNCC(=O)O

For `Cc1c2oc3c(C)ccc(C(=O)N[C@@H]4C(=O)N[C@H](C(C)C)C(=O)N5CCC[C@H]5C(=O)N(C)CC(=O)N(C)[C@@H](C(C)C)C(=O)O[C@@H]4C)c3nc-2c(C(=O)N[C@@H]2C(=O)N[C@H](C(C)C)C(=O)N3CCC[C@H]3C(=O)N(C)CC(=O)N(C)[C@@H](C(C)C)C(=O)O[C@@H]2C)c(N)c1=O` [Actinomycin D, reference compound] (I: T[dV]P[Sar][NMeV] / II: T[dV]P[Sar][NMeV]; ester I:1-I:C, II:1-II:C; linker I:N-II:N via Actinocin(9to1)), the IC50 in data set [1] is 1.3 mg/L; in data set [2], 0.07 mg/L; in data set [3], over 30 mg/L.
Consider `C=C1C(=O)N[C@@H](C)C(=O)N(C)[C@@H](C)C(=O)N[C@@H]([C@H](OC(=O)[C@@H](NC(=O)CC)[C@H](O)C(C)C)C(C)C)C(=O)N(C)[C@@H]([C@@H](C)OC)C(=O)O[C@H](C(C)C)[C@H](NC(C)=O)C(=O)O[C@H](Cc2ccccc2)C(=O)N1C` [FR900359] (Ac-[X1][dPhLac][NMeDha]A[NMeA][X1](Leu(3R-OH,Nα-propionyl))[NMeT](Me); ester 1-C), for which the “inhibition of platelet aggregation” value with platelet aggregation was “inhibition of platelet aggregation”. The “decrease of blood pressure” value in [4] is listed as “decrease of blood pressure”.
For `CO[C@@]12[C@H](COC(N)=O)C3=C(C(=O)C(C)=C(N)C3=O)N1C[C@@H]1N[C@@H]12` [Mitomycin C, reference compound], the “Body weight change on day 5” value was “+0.8 g” in the data set with B16 melanoma (0.25 mg/kg/day ip), “+0.6 g” in the data set with B16 melanoma (0.5 mg/kg/day ip), “+0.8 g” with B16 melanoma (1 mg/kg/day ip) and “+0.5 g” in the data set on B16 melanoma (2 mg/kg/day ip). Further, the “MST (Median survival time)” value worked out at 15.5 days with B16 melanoma (0.25 mg/kg/day ip); 18.0 days with B16 melanoma (0.5 mg/kg/day ip); 22.0 days with B16 melanoma (1 mg/kg/day ip); 27.5 days in the data set with B16 melanoma (2 mg/kg/day ip); 11.5 days in the data set with P388 leukemia (0.25 mg/kg/day ip); 13.0 days in the data set on P388 leukemia (0.5 mg/kg/day ip). In addition, the “MST (Median survival time)” value in the data set with P388 leukemia (1 mg/kg/day ip) was 14.0 days; with P388 leukemia (2 mg/kg/day ip), 15.5 days; in the data set on P388 leukemia (4 mg/kg/day ip) it was 16.5 days; in the data set with L1210 leukemia (0.5 mg/kg/day ip), 10.0 days; with L1210 leukemia (1 mg/kg/day ip) it was 10.0 days; in the data set on L1210 leukemia (2 mg/kg/day ip), 10.5 days. The “MST (Median survival time)” value came out at 11.0 days in the data set on L1210 leukemia (4 mg/kg/day ip) and 12.5 days in the data set on L1210 leukemia (8 mg/kg/day ip). Moreover, the T/C in the data set on B16 melanoma (0.25 mg/kg/day ip) was 119%; in the data set with B16 melanoma (0.5 mg/kg/day ip), 138*² %; in the data set with B16 melanoma (1 mg/kg/day ip) it was 169*² %; with B16 melanoma (2 mg/kg/day ip), 212*² %; in the data set on P388 leukemia (0.25 mg/kg/day ip), 115%; with P388 leukemia (0.5 mg/kg/day ip), 130*² %. Further, the T/C is on record as 140*² % with P388 leukemia (1 mg/kg/day ip); 155*² % in the data set with P388 leukemia (2 mg/kg/day ip); 165*² % in the data set with P388 leukemia (4 mg/kg/day ip); 125*² % with L1210 leukemia (0.5 mg/kg/day ip); 125*² % in the data set with L1210 leukemia (1 mg/kg/day ip); 131*² % in the data set with L1210 leukemia (2 mg/kg/day ip). Also, the T/C with L1210 leukemia (4 mg/kg/day ip) is recorded as 138*² %; with L1210 leukemia (8 mg/kg/day ip), 156*² %. Further, the “Body weight change on day 4” value in the data set with P388 leukemia (0.25 mg/kg/day ip) was “+1.0 g”; in the data set with P388 leukemia (0.5 mg/kg/day ip), “+1.5 g”; with P388 leukemia (1 mg/kg/day ip) it was “+2.0 g”; with P388 leukemia (2 mg/kg/day ip), “+0.5 g”; with P388 leukemia (4 mg/kg/day ip), -0.8 g; with L1210 leukemia (0.5 mg/kg/day ip), “+1.5 g”. The “Body weight change on day 4” value in the data set on L1210 leukemia (1 mg/kg/day ip) is “+1.5 g”; in the data set on L1210 leukemia (2 mg/kg/day ip), “+1.0 g”; in the data set with L1210 leukemia (4 mg/kg/day ip), “+0.5 g”; in the data set on L1210 leukemia (8 mg/kg/day ip) it was -0.3 g.
Take `C/C=C(\C)C(=O)[C@@H](/C=C(\C)[C@@H]1O[C@@](O)([C@](O)(CC)C(=O)N[C@@H]2C(=O)N3NCCC[C@H]3C(=O)N(O)[C@H](COC)C(=O)N(C)[C@H](C)C(=O)N3NCCC[C@@H]3C(=O)N[C@@H]([C@H](C)O)C(=O)O[C@@H]2C(C)C)CC[C@H]1C)CC` [azinothricin]: in [5], the “activity against Gram-positive microorganisms” value is on record as “primarily active”.
Telomycin: in the data set with Gram-positive organism, the “activity against Gram-positive organism” value was “active”. Also, the “effect against most Gram-negative bacteria” value with Gram-negative bacteria is reported as “little or no effect”.
